Test results from ChEMBL document CHEMBL4190365, “Synthesis and antiproliferative properties of new hydrophilic esters of triterpenic acids” (Eur J Med Chem, 2017).

Assays:
Type in all cases: functional, cell-based
CCRF-CEM = test: Cytotoxicity in human CEM cells assessed as reduction in cell viability incubated for 72 hrs by calcein AM cytotoxicity assay
MCF7 = test: Cytotoxicity in human MCF7 cells assessed as reduction in cell viability incubated for 72 hrs by calcein AM cytotoxicity assay
G-361 = test: Cytotoxicity in human G361 cells assessed as reduction in cell viability incubated for 72 hrs by calcein AM cytotoxicity assay
BJ = test: Cytotoxicity in human BJ cells assessed as reduction in cell viability incubated for 72 hrs by calcein AM cytotoxicity assay
HeLa = test: Cytotoxicity in human HeLa cells assessed as reduction in cell viability incubated for 72 hrs by calcein AM cytotoxicity assay

SMILES	IC50 (CCRF-CEM; Homo sapiens, CCRF-CEM, 72 h) [µM]	IC50 (MCF7; mcf7) [µM]	IC50 (G-361; g-361) [µM]	IC50 (BJ; bj) [µM]	IC50 (MCF7; Homo sapiens, MCF7, 72 h) [µM]	IC50 (HeLa; Homo sapiens, HeLa, 72 h) [µM]	IC50 (G-361; Homo sapiens, G-361, 72 h) [µM]	IC50 (BJ; Homo sapiens, BJ, 72 h) [µM]	IC50 (CCRF-CEM; ccrf-cem) [µM]	IC50 (HeLa; hela) [µM]
CC(C)[C@@H]1CC[C@]2(C(=O)OCCN3CCCCC3)CC[C@]3(C)[C@H](CC[C@@H]4[C@@]5(C)CC[C@H](O)C(C)(C)[C@@H]5CC[C@]43C)[C@@H]12	26.7	26.1	29.9	46.5	–	–	–	–	–	–
CC(=O)O[C@H]1CC[C@]2(C)[C@H]3CC[C@@H]4C5=C(C(C)C)C(=O)C[C@]5(C(=O)OCC(=O)O)CC[C@@]4(C)[C@]3(C)CC[C@H]2C1(C)C	24.2	–	–	–	> 50	47.9	45.6	> 50	–	–
C=C(C)[C@@H]1CC[C@]2(C(=O)OCCN3CCCC3)CC[C@]3(C)[C@H](CC[C@@H]4[C@@]5(C)CC[C@H](O)C(C)(C)[C@@H]5CC[C@]43C)[C@@H]12	–	14.3	7.1	15.5	–	–	–	–	2.3	–
CC(=O)OC[C@H]1O[C@@H](OC(=O)[C@@]23CC[C@]4(C)[C@H](CC[C@@H]5[C@@]6(C)CC[C@H](OC(C)=O)C(C)(C)[C@@H]6CC[C@]54C)C2=C(C(C)C)C(=O)C3)[C@H](OC(C)=O)[C@@H](OC(C)=O)[C@H]1OC(C)=O	4.5	–	–	–	3.7	44.3	3.1	31.8	–	–
C=C(C)[C@@H]1CC[C@]2(C(=O)OCC(=O)O)CC[C@]3(C)[C@H](CC[C@@H]4[C@@]5(C)CC[C@H](O)C(C)(C)[C@@H]5CC[C@]43C)[C@@H]12	> 50	–	–	–	> 50	> 50	> 50	> 50	–	–
CC(=O)OC[C@@]1(C(=O)OCCN2CCCC2)CC[C@]2(C)[C@H](CC[C@@H]3[C@@]4(C)CC[C@H](OC(C)=O)C(C)(C)[C@@H]4CC[C@]32C)[C@@H]1O	8.3	–	–	–	10	10.6	7.4	14.1	–	–
C=C(C)[C@@H]1CC[C@]2(C(=O)OCCOCCOC)CC[C@]3(C)[C@H](CC[C@@H]4[C@@]5(C)CC[C@H](O)C(C)(C)[C@@H]5CC[C@]43C)[C@@H]12	30.7	–	–	–	36.4	14.5	26.9	> 50	–	–
COCCOC(=O)[C@]12CC[C@@H](C(C)C)[C@@H]1[C@H]1CC[C@@H]3[C@@]4(C)CC[C@H](O)C(C)(C)[C@@H]4CC[C@@]3(C)[C@]1(C)CC2	38.4	–	–	–	44.4	21.5	38.6	26.5	–	–
CC(=O)OC[C@@]1(C(=O)OCCBr)CC[C@]2(C)[C@H](CC[C@@H]3[C@@]4(C)CC[C@H](OC(C)=O)C(C)(C)[C@@H]4CC[C@]32C)[C@@H]1O	> 50	–	–	–	> 50	> 50	> 50	> 50	–	–
CC(=O)OC[C@H]1O[C@@H](OC(=O)[C@@]23CC[C@]4(C)[C@H](CC[C@@H]5[C@@]6(C)CC[C@H](OC(C)=O)C(C)(C)[C@@H]6CC[C@]54C)C2=C(C(C)C)C(=O)C3)[C@H](OC(C)=O)[C@@H](OC(C)=O)[C@@H]1OC(C)=O	9.1	–	–	–	3.8	9.8	4.3	> 50	–	–
COCCOCCOC(=O)[C@]1(COC(C)=O)CC[C@]2(C)[C@H](CC[C@@H]3[C@@]4(C)CC[C@H](OC(C)=O)C(C)(C)[C@@H]4CC[C@]32C)C1=O	> 50	–	–	–	> 50	> 50	> 50	> 50	–	–
CC(=O)OC[C@@]1(C(=O)OCC(=O)OCc2ccccc2)CC[C@]2(C)[C@H](CC[C@@H]3[C@@]4(C)CC[C@H](OC(C)=O)C(C)(C)[C@@H]4CC[C@]32C)C1=O	> 50	–	–	–	> 50	> 50	> 50	> 50	–	–
CC(=O)OC[C@H]1O[C@@H](OC(=O)[C@]23CC[C@@H](C(C)C)[C@@H]2[C@H]2CC[C@@H]4[C@@]5(C)CC[C@H](O)C(C)(C)[C@@H]5CC[C@@]4(C)[C@]2(C)CC3)[C@H](OC(C)=O)[C@@H](OC(C)=O)[C@H]1OC(C)=O	8.6	–	–	–	2.8	5.1	4.7	> 50	–	–
C=C(C)[C@@H]1CC[C@]2(C(=O)O[C@@H]3O[C@H](CO)[C@H](O)[C@H](O)[C@H]3O)CC[C@]3(C)[C@H](CC[C@@H]4[C@@]5(C)CC[C@H](O)C(C)(C)[C@@H]5CC[C@]43C)[C@@H]12	> 50	–	–	–	> 50	> 50	> 50	> 50	–	–
C=C(C)[C@@H]1CC[C@]2(C(=O)OCCN3CCOCC3)CC[C@]3(C)[C@H](CC[C@@H]4[C@@]5(C)CC[C@H](O)C(C)(C)[C@@H]5CC[C@]43C)[C@@H]12	> 50	–	–	–	–	–	–	–	–	> 50
